Source: US7423177B2, “Carboxamide derivatives as therapeutic agents” (TransTech Pharma, Inc., priority 2001, dated 2008)
Structures can show the parent of a compound that is named as a salt. Values belong to the compound of their own block, whether it stands above or below them.

Columns and labels:
[1] = target: T1, RAGE (sRAGE) binding to Carboxymethyl Lysine (CML) (Homo sapiens, UniProt Q15109); test: ELISA assay: inhibition of sRAGE binding to plate-bound CML; settings: ligand CML coated on plate, concentration at which 50% signal has been inhibited
T1 construct: extracellular domain can be isolated by proteolysis of RAGE to generate soluble RAGE (sRAGE) comprised of the V and C domains
Protocol: (§1) This method is also described and claimed in co-pending U.S. Ser. No. 09/799,152 filed Mar. 5, 2001.
(§2) S100b, β-amyloid and CML (500 ng/100 μL/well) in 100 mM sodium bicarbonate/sodium carbonate buffer (pH 9.8) is loaded onto the wells of a NUNC Maxisorp flat bottom 96 -well microtitre plate. The plate is incubated at 4° C. overnight. The wells are aspirated and treated with 50 mM imidazole buffer saline (pH 7.2) (with 1 mM CaCl2/MgCl2) containing 1% bovine serum albumin (BSA) (300 μL/well) for two h at 37° C.
(§3) Test compounds are dissolved in nanopure water (concentration: 10-100 μM). DMSO may be used as co-solvent. 25 μL of test compound solution in 2% DMSO is added, along with 75 μL SRAGE (4.0×10^−4 mg/mL FAC) to each well and samples are incubated for 1 h at 37° C. The wells are washed 3 times with 155 mM NaCl pH 7.2 buffer saline and are soaked 10 seconds between each wash.
(§4) Non-Radioactive Binding is Performed by Adding:
(§5) 10 μL Biotinylated goat F(ab′)2 Anti-mouse IgG. (8.0×10^−4 mg/mL, FAC)
(§6) 10 μL Alk-phos-Sterptavidin (3×10^−3 mg/mL FAC)
(§7) 10 μL Polyclonal antibody for sRAGE (FAC 6.0×10^−3 mg/mL)
(§8) to 5 mL 50 mM imidazole buffer saline (pH 7.2) containing 0.2% bovine serum albumin and 1 mM […]. The mixture is incubated for 30 minutes at 37° C. 100 μL complex is added to each well and incubation is allowed to proceed at rt for 1 h. Wells are washed 3 times with wash buffer and soaked 10 s between each wash. 100 μL 1 mg/mL (pNPP) in 1 M diethanolamine (pH adjusted to 9.8 with HCl) is added. Color is allowed to develop in the dark for 1 to 2 h at rt. The reaction is quenched with 10 μL of stop solution (0.5 N NaOH in 50% ethanol) and the absorbance is measured spectrophotometrically with a microplate reader at 405 nm.

[2] = target: T2, RAGE (sRAGE) binding to β-amyloid (Homo sapiens, UniProt Q15109); test: ELISA assay: inhibition of sRAGE binding to plate-bound β-amyloid; settings: ligand β-amyloid coated on plate, concentration at which 50% signal has been inhibited
T2 construct: extracellular domain can be isolated by proteolysis of RAGE to generate soluble RAGE (sRAGE) comprised of the V and C domains
Protocol: as §1, §2, §3, §4, §5, §6, §7, §8

[3] = target: T3, RAGE (sRAGE) binding to S100b (Homo sapiens, UniProt Q15109); test: ELISA assay: inhibition of sRAGE binding to plate-bound S100b; settings: ligand S100b coated on plate, concentration at which 50% signal has been inhibited, read-out: ELISA Assay IC50 (μM) S-100b
T3 construct: extracellular domain can be isolated by proteolysis of RAGE to generate soluble RAGE (sRAGE) comprised of the V and C domains
Protocol: as §1, §2, §3, §4, §5, §6, §7, §8

T2 sequence (Q15109 23-342 limits assumed): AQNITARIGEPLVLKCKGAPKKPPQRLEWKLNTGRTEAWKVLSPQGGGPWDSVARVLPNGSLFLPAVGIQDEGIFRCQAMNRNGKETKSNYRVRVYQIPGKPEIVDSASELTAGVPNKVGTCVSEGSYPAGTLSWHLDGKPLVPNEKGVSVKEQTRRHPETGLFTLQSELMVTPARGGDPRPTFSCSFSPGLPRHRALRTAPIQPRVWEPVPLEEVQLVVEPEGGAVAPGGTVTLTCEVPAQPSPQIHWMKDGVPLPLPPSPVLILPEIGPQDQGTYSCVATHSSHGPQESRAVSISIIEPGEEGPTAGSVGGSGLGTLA
T1 sequence (Q15109 23-342 limits assumed): as above
T3 sequence (Q15109 23-342 limits assumed): as above

Compound: CCCCOc1cc(C(=O)OCCN(CC)CC)ccc1NC(=O)[C@@H]1Cc2ccccc2CN1 [Example 6, (3S)-1,2,3,4-Tetrahydroisoquinoline-3-carboxylic Acid 4-Diethylaminoethoxycarbonyl-2-butoxyaniline Amide Dihydrochloride]
- IC50 [1]: 5 to 10 µM
- IC50 [2]: 10 to 20 µM
- IC50 [3]: 10 to 20 µM

Compound: CCCCOc1cc(OCCCN(CC)CC)ccc1NC(=O)C(CC1CCN(C(=O)c2ccccc2)CC1)NC(=O)OCC1c2ccccc2-c2ccccc21 (stereo not drawn) [Example 27, 3-(1 -Benzoylpiperidin-4-yl)-2-(9-fluorenylmethoxycarbonylamino)propionic Acid 4-Diethylaminopropoxy-2-butoxyaniline Amide]
- IC50 [1]: 1 to 5 µM
- IC50 [2]: 1 to 5 µM
- IC50 [3]: 1 to 5 µM

Compound: CCCCOc1cc(C(=O)OCCN(CC)CC)ccc1NC(=O)[C@@H](Cc1ccc(OCc2ccccc2)cc1)n1ccnc1 [Example 7, (R)-3-(4-Benzyloxyphenyl)-2-(1-imidazolyl)propionic Acid 4-Diethylaminoethoxycarbonyl-2-butoxyaniline Amide]
- IC50 [1]: 1 to 5 µM
- IC50 [2]: 1 to 5 µM
- IC50 [3]: 0.5 to 1 µM

Compound: CCN(CC)CCCOc1ccc(NC(=O)CC(NC(=O)OCC2c3ccccc3-c3ccccc32)c2cccc(OC(C)(C)C)c2)c(OCCCN(CC)CC)c1 (stereo not drawn) [Example 2, 3-(3-Tert-butoxyphenyl)-3-(9-fluorenylmethoxycarbonylamino)propionic Acid 2,4-Di-(3-diethylaminopropoxy)aniline Amide]
- IC50 [1]: 0.5 to 1 µM
- IC50 [2]: 1 to 5 µM
- IC50 [3]: < 0.5 µM

Compound: CCCCOc1cc(OCCCN(CC)CC)ccc1NC(=O)C(CC1CCN(C(=O)OCc2ccccc2)CC1)NC(=O)OCC1c2ccccc2-c2ccccc21 (stereo not drawn) [Example 26, 3-(1 -Benzyloxycarbonylpiperidin-4-yl)-2-(9-fluorenylmethoxycarbonyamino)propionic Acid 4-Diethylaminopropoxy-2-butoxyaniline Amide]
- IC50 [1]: 0.5 to 1 µM
- IC50 [2]: 1 to 5 µM
- IC50 [3]: 1 to 5 µM

Compound: CCN(CC)CCCOc1ccc(NC(=O)CC(NC(=O)OCC2c3ccccc3-c3ccccc32)c2ccc(OC(C)(C)C)cc2)c(OCCCN(CC)CC)c1 (stereo not drawn) [Example 8, 3-(4-Tert-butoxyphenyl)-3-(9-fluorenylmethoxycarbonylamino)propionic Acid 2,4-Di-(3-diethylaminopropoxy)aniline Amide]
- IC50 [1]: 0.5 to 1 µM
- IC50 [2]: 0.5 to 1 µM
- IC50 [3]: 0.5 to 1 µM

Compound: CCCCOc1cc(OCCCN(CC)CC)ccc1NC(=O)C(CC1CCCNC1)NC(=O)OCC1c2ccccc2-c2ccccc21 (stereo not drawn) [Example 30, 3-(Piperidin-3-yl)-2-(9-fluorenylmethoxycarbonylamino)propionic Acid 4-Diethylaminopropoxy-2-butoxyaniline Amide]
- IC50 [1]: 0.5 to 1 µM
- IC50 [2]: 0.5 to 1 µM
- IC50 [3]: 0.5 to 1 µM

Compound: CCN(CC)CCCOc1ccc(NC(=O)CC(N)c2cccc(OC(C)(C)C)c2)c(OCCCN(CC)CC)c1 (stereo not drawn) [Example 3, 3-(3-Tert-butoxyphenyl)-3-aminopropionic Acid 2,4-Di-(3-diethylaminopropoxy)aniline Amide]
- IC50 [1]: 1 to 5 µM
- IC50 [2]: 1 to 5 µM
- IC50 [3]: 1 to 5 µM

- IC50 [1]: 10 to 20 µM
- IC50 [2]: 10 to 20 µM
- IC50 [3]: 5 to 10 µM
Compound: CCN(CC)CCCOc1ccc(N(CC2CCCC2)C(=O)[C@H](N)Cc2ccc(OCc3ccccc3)cc2)cc1 [Example 17, (2R)-2-amino-3-[4-(benzyloxy)phenyl]propionic Acid 4-(3-diethylaminopropoxy)-N-cyclopentylmethylaniline Amide]

Compound: CCN(CC)CCCOc1ccc(NC(=O)CC(N)c2ccccc2OC(C)(C)C)c(OCCCN(CC)CC)c1 (stereo not drawn) [Example 11, 3-amino-3-(2-tert-butoxyphenyl)propionic Acid 2,4-Di-(3-diethylaminopropoxy)aniline Amide]
- IC50 [1]: 1 to 5 µM
- IC50 [2]: 1 to 5 µM
- IC50 [3]: 1 to 5 µM

Compound: CCN(CC)CCCOc1ccc(NC(=O)CC(NC(=O)OCC2c3ccccc3-c3ccccc32)c2ccccc2OC(C)(C)C)c(OCCCN(CC)CC)c1 (stereo not drawn) [Example 10, 3-(9-fluorenylmethoxycarbonylamino)-3-(2-tert-butoxyphenyl)propionic Acid 2,4-Di-(3-diethylaminopropoxy)aniline Amide]
- IC50 [1]: 1 to 5 µM
- IC50 [2]: 1 to 5 µM
- IC50 [3]: 0.5 to 1 µM

Compound: CCCCOc1cc(OCCCN(CC)CC)ccc1NC(=O)C(CC1CCN(C(=O)c2ccccc2)CC1)NC(=O)c1ccccc1 (stereo not drawn) [Example 28, 3-(1-Benzoylpiperidin-4-yl)-2-benzoylaminopropionic Acid 4-Diethylaminopropoxy-2-butoxyaniline Amide]
- IC50 [1]: 1 to 5 µM
- IC50 [2]: 5 to 10 µM
- IC50 [3]: 5 to 10 µM

Compound: CCN(CC)CCCOc1ccc(N(Cc2ccccc2)C(=O)[C@@H](Cc2ccc(OCc3ccccc3)cc2)NC(=O)OC(C)(C)C)cc1 [Example 13, (2R)-2-tert-butoxycarbonylamino-3-[4-(benzyloxy)phenyl]propionic Acid 4-(3-diethylaminopropoxy)-N-benzylaniline Amide]
- IC50 [1]: 5 to 10 µM
- IC50 [2]: 5 to 10 µM
- IC50 [3]: 5 to 10 µM

Compound: (2R)-2-tert-butoxycarbonylamino-3-[4-(benzyloxy)phenyl]propionic Acid 4-(3-diethylaminopropoxy)-N-isopropylaniline Amide [Example 15]
- IC50 [1]: 5 to 10 µM
- IC50 [2]: 1 to 5 µM
- IC50 [3]: 1 to 5 µM

Compound: CCN(CC)CCCOc1ccc(NC(=O)CC(NC(C)C)c2cccc(OC(C)(C)C)c2)c(OCCCN(CC)CC)c1 (stereo not drawn) [Example 12, 3-Isopropylamino-3-(3-tert-butoxyphenyl)propionic Acid 2,4-Di-(3-diethylaminopropoxy)aniline Amide]
- IC50 [1]: 0.5 to 1 µM
- IC50 [2]: 1 to 5 µM
- IC50 [3]: 1 to 5 µM

Compound: CCCCOc1cc(C(=O)OCCN(CC)CC)ccc1NC(=O)C(N)CC1CCOCC1 (stereo not drawn) [Example 4, 3-(4-Tetrahydropyranyl)-2-aminopropionic Acid 4-Diethylaminoethoxycarbonyl-2-butoxyaniline Amide Dihydrochloride]
- IC50 [3]: 10 to 20 µM

- IC50 [1]: 1 to 5 µM
- IC50 [2]: 1 to 5 µM
- IC50 [3]: 1 to 5 µM
Compound: CCCCN(C(=O)[C@H](N)Cc1ccc(OCc2ccccc2)cc1)c1ccc(OCCCN(CC)CC)cc1 [Example 19, (2R)-2-amino-3-[4-(benzyloxy)phenyl]propionic Acid 4-(3-diethylaminopropoxy)-N-butylaniline Amide]

Compound: CCCCOc1cc(OCCCN(CC)CC)ccc1NC(=O)C(CC1CCNCC1)NC(=O)OCC1c2ccccc2-c2ccccc21 (stereo not drawn) [Example 23, 3-(Piperidin-4-yl)-2-(9-fluorenylmethoxycarbonylamino)propionic Acid 4-Diethylaminopropoxy-2-butoxyaniline Amide]
- IC50 [1]: 1 to 5 µM
- IC50 [2]: 0.5 to 1 µM
- IC50 [3]: 0.5 to 1 µM

Compound: CCCCOc1cc(OCCCN(CC)CC)ccc1NC(=O)C(CC1CCN(Cc2ccccc2)CC1)NC(=O)OCC1c2ccccc2-c2ccccc21 (stereo not drawn) [Example 24, 3-(1-Benzylpiperidin-4-yl)-2-(9-fluorenylmethoxycarbonylamino)propionic Acid 4-Diethylaminopropoxy-2-butoxyaniline Amide]
- IC50 [1]: < 0.5 µM
- IC50 [2]: 0.5 to 1 µM
- IC50 [3]: 0.5 to 1 µM

Compound: CCCCN(C(=O)[C@@H](Cc1ccc(OCc2ccccc2)cc1)NC(=O)OC(C)(C)C)c1ccc(OCCCN(CC)CC)cc1 [Example 18, (2R)-2-tert-butoxycarbonylamino-3-[4-(benzyloxy)phenyl]propionic Acid 4-(3-diethylaminopropoxy)-N-butylaniline Amide]
- IC50 [1]: 1 to 5 µM
- IC50 [2]: 1 to 5 µM
- IC50 [3]: 1 to 5 µM

Compound: CCCCN(C(=O)[C@@H](Cc1ccc(OCc2ccccc2)cc1)NC(=O)OC(C)(C)C)c1cccc(OCCCN(CC)CC)c1 [Example 20, (2R)-2-tert-butoxycarbonylamino-3-[4-(benzyloxy)phenyl]propionic Acid 3-(3-diethylaminopropoxy)-N-butylaniline Amide]
- IC50 [1]: 1 to 5 µM
- IC50 [2]: 1 to 5 µM
- IC50 [3]: 1 to 5 µM

- IC50 [3]: 1 to 5 µM
Compound: CCN(CC)CCCOc1ccc(NC(=O)CCc2ccc(OCc3ccccc3)cc2)c(OCCCN(CC)CC)c1 [Example 1, 3-(4-Benzyloxyphenyl)propionic Acid 2,4-Di-(3-Diethylamino-1-propoxy)aniline Amide]

Compound: CCN(CC)CCCOc1ccc(NC(=O)[C@@H]2C[C@@H](OC(C)(C)C)CN2)c(OCCCN(CC)CC)c1 [Example 5, (2S, 4R)-4-Tert-Butoxypyrrolidine-2-carboxylic acid 2,4-Di(3-diethylamino-1-propoxy)aniline Amide]
- IC50 [3]: 1 to 5 µM
